Results from US4863748A, “Dietary products and uses comprising methylsulfonylmethane” (priority 1986, dated 1989).

Legend:
mood and depression = assay: Mental normalcy (Example 16); type: in vivo, human
Protocol: Students reported that while taking methylsulfonylmethane, their ability to concentrate is enhanced. Methylsulfonylmethane therefore is useful in conjunction with CNS therapeutants. The most useful application for methylsulfonylmethane seen to date in the field of mental normalizing is as an aid to the terminally ill, to relieve anxiety and depression.
To a chronically or terminally ill patient suffering from mental depression, administer […] body weight of methylsulfonylmethane daily, in tablet or capsule form, dissolved in water or a cold beverage, or admixed in a cold food. Within 12 hours to 2 days, a significant improvement in the mental attitude of the patient will be noted.

skin = assay: Effect on skin tissue; conditions: in vivo
Text: Studies to date indicate that it is desirable that animals ingest about 0.5-1.0 milligram/kg body weight/day of methylsulfonylmethane to maintain optimum good health. However, any lower level will serve some benefit. Higher levels are either stored in the body as a sulfur reserve, provide a sufficient concentration to optimize synthesis of the multitude of required sulfur containing biomolecules, or simply are excreted as by the renal pathway or through the skin.

[1] = cited from earlier work
[2] = tested on: bilateral fibrinous pleuritis; assay: Bilateral fibrinous pleuritis in a breeding mare (Examples 4 and 24); type: in vivo, horse (mare)
Protocol: A valuable breeding mare, treated for a respiratory infection developed bilateral fibrinous pleuritis, easily heard with auscultation of the chest. After six weeks therapy with a combination of conventional antibiotics and anti-inflammatory drugs, there was little if any improvement. Conventional therapy was terminated. Methylsulfonylmethane was added to the diet of this refractory case (24 g, twice daily, over a period of 5 days). This was the only special treatment given. […] Auscultation of the chest was negative.

[3] = Naturally occurring body levels of methylsulfonylmethane; type: in vivo, animals
Text: The methylsulfonylmethane is usually provided in the aninmal's normal feed rations, periodically throughout the day or on successive days, or both, e.g., for 2 to 21 days or even longer. The daily food ration appropriate for the animal being fed is supplemented with an amount of methylsulfonylmethane calculated to correspond to a predetermined amount per total body weight of the animals being fed. The exact amount of methylsulfonylmethane ingested each day is not always critical, particularly when methylsulfonylmethane administration is over an extended period of days, because the ingested methylsulfonylmethane accumulates in the body tissues and fluids, i.e., reaches an effective titer. Methylsulfonylmethane-supplemented rations providing levels of as low as 0.5-1 mg/kg animal body weight are sometimes effective and levels as high as 300 mg/kg body weight or more are well tolerated. The usual target level per individual animal is about 0.2-2.0 mg/kg body weight preferably 0.5-1.0 mg per kg body weight. Total daily supplements corresponding to up to about 1 gm/kg body weight or more, are preferably employed, depending on the degree of deficiency. Healthy animals often have methylsulfonylmethane blood levels of at least 1 ppm, and desirably, enough methylsulfonylmethane is provided to raise blood levels to above 1 ppm. […]

anticholinesterases = conditions: in vivo; cited from earlier work
platelet count = assay: Low platelet count in lupus erythematosus (Example 22); type: in vivo, human; conditions: 1.5 gm/day in 3 doses, 2-year period
Text: Methylsulfonylmethane administered orally raised the platelet count of an adult with lupus erythematosus from 84,000 (after prednisone therapy) to 200,000 over a 2-year period (1.5 gm/day in 3 doses).

stress death = assay: Stress death in fish (Example 10); type: in vivo, Goldfish; conditions: 2% by weight in feed, 25 fish; control 11 deaths
Protocol: 62 Goldfish, about 2 inches long, were divided into two 31 population lots and placed in acclimated aquariums (2) maintained at 50° F. On receipt of the fish, two small one gallon aquariums were filled with tap water and stablized for 5 days by aeration with an aerator/filter combination connected to a common aquarium air pump. Air delivery during the test period was standardized at 100 ml of air per minute. From a 1 oz. package of "Wardleys" goldfish food two 10 gram samples were removed. One sample was untreated and the other was moistened with about one ml of pure ethanol containing 0.2 gram methylsulfonylmethane in solution. The feed absorbed all the methylsulfonylmethane (the lot after air drying for 48 hours weighed 10.2 grams). Both feeds were pulverized to a coarse powder suitable for feeding small fish.
The 31 fish in each of the two holding aquariums were identified as batch A and batch B. During the acclimatization and test periods the batch A fish were fed 0.5 gram of untreated "Wardleys" food once daily. Batch B fish were fed 0.5 gram of the feed containing the methylsulfonylmethane during the acclimatization and test periods. Neither batch A nor B consumed all of the feed as some eventually collected in the fiberglass filter. However, most of each feeding was consumed in the first 5-10 minutes after delivery. […]

[4] = 24 g twice daily, 5 days (Example 4)

## CS(C)(=O)=O [methylsulfonylmethane]
Mood and depression; 1000 mg/kg body weight daily, chronically or terminally ill patient
  time to significant improvement in mental attitude: Within 12 hours to 2 days
Mood and depression; reported by individuals
  alertness: increased alertness
  depression frequency: very infrequent depression
  mood changes: a plateau of mood changes
Mood and depression; students
  ability to concentrate: enhanced
Mood and depression; subjects intermittently on antidepression medication, days with prior medication
  time to relief of depression: within hours rather than days
skin
  pliability and softness of the skin: improving
[1]; i.p.
  motor activity: reduces
[1]; rats exposed to 5° C.
  body temperature: lowers
[2]; 2×12 gm/day in diet, five days (Example 24)
  response of pleuritis: responded favorably (normal breathing, negative ausculation of the chest)
[2]; [4]
  auscultation of the chest: negative
  breathing at fifth day: returned to normal
  pain at fifth day: no longer demonstrated pain
[2]; followed two years after treatment (Example 4)
  state over the next two years: normal and healthy
[3]; healthy animals often
  blood level in healthy animals: at least 1 ppm
[3]; with maturity
  methylsulfonylmethane in the humoral fluid: less than 0.5 ppm
anticholinesterases
  lethal effects of anticholinesterases such as paraoxon, tetraethyl pyrophosphate and octamethyl pyrophosphoramide: antagonizes
Platelet count
  platelet count: 200,000
Stress death
  deaths in aquarium by day ten: one
